Laboratory results from paper PMC2765255 (Journal of medicinal chemistry, 2009).
Counter-ions that a name gives are not always drawn.

Experiments:
[1] = molecular target: human squalene synthase (SQS) (Homo sapiens, UniProt P37268); type: biochemical; details: experimental data
[2] = molecular target: S. aureus CrtM (dehydrosqualene synthase) (Staphylococcus aureus, UniProt A9JQL9); experiment: CrtM enzyme inhibition assay; type: biochemical
S. aureus = details: mice treated with 1, compared to control group; cited from earlier work
[3] = system: STX biosynthesis in S. aureus; experiment: Staphyloxanthin biosynthesis inhibition assay; type: cell-based; details: Staphylococcus aureus, 72 h, read-out: staphyloxanthin IC50

Chain of S. aureus CrtM (dehydrosqualene synthase) (A9JQL9 whole entry): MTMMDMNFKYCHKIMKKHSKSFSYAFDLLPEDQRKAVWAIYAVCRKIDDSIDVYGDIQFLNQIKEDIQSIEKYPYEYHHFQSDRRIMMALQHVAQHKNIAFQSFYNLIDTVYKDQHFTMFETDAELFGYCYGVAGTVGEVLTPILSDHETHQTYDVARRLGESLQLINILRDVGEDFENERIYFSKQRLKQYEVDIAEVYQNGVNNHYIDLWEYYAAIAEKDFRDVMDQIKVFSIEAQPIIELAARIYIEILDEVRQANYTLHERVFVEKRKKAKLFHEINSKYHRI
Chain of human squalene synthase (SQS) (P37268 31-370): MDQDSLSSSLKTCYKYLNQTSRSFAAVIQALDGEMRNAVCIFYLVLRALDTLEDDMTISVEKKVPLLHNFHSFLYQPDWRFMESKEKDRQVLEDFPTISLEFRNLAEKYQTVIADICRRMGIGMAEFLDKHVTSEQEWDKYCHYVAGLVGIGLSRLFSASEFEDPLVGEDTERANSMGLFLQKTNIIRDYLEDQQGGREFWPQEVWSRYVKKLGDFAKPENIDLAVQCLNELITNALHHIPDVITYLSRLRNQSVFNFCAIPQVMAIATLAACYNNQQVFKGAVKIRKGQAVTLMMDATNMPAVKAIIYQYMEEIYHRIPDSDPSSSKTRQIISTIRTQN

In the case of `O=P([O-])([O-])C(CCCc1ccc(-c2ccc(C(F)(F)F)cc2)cc1)P(=O)([O-])[O-].[K+].[K+].[K+].[K+]` [Compound 3], the “pIC50(CrtM) – pIC50(hSQS)” value [1] is reported as −1.86 M and the IC50 [2] is reported as 0.182 µM.

With `O=P([O-])([O-])C(CCc1cccc(Oc2ccccc2)c1)S(=O)(=O)[O-].[K+].[K+].[K+]` (stereo not shown) [Compound 15, 1-Phosphono-3-(3-phenoxyphenyl)propylsulfonic Acid Tripotassium Salt] the “pIC50(CrtM) – pIC50(hSQS)” value [1] was −2.96 M.

With `O=P([O-])([O-])[C@H](CCCc1cccc(Oc2ccccc2)c1)S(=O)(=O)[O-].[K+].[K+].[K+]` [Compound (S)-1, (1S)-1-Phosphono-4-(3-phenoxyphenyl)butylsulfonic Acid Tripotassium Salt] the “more active than its (R)-enantiomer in CrtM inhibition” value ([2]; fold) was ~30 ×.

In the case of `O=P([O-])([O-])C(CCCc1cccc(Oc2ccccc2Cc2ccccc2)c1)S(=O)(=O)[O-].[K+].[K+].[K+]` (stereo not shown) [Compound 8, 1-Phosphono-4-[3-(2-benzylphenoxy)phenyl]butylsulfonic Acid Tripotassium Salt], the “less active than 1 in CrtM inhibition” value [2] is reported as “≈ 5 ×”.

In the case of `O=P([O-])([O-])C(CCCc1cccc(Oc2ccccc2)c1)S(=O)(=O)[O-].[K+].[K+].[K+]` (stereo not shown) [Compound 1, 1-Phosphono-4-(3-phenoxyphenyl)butylsulfonic Acid Tripotassium Salt], the “bacterial counts in kidneys reduced” value (S. aureus) is given as 98%.

In the case of `CCCc1ccc(Oc2cccc(CCCC(P(=O)([O-])[O-])S(=O)(=O)[O-])c2)cc1.[K+].[K+].[K+]` (stereo not shown) [Compound 6, 1-Phosphono-4-[3-(4-propylphenoxy)phenyl]butylsulfonic Acid Tripotassium Salt], the “as active as 1 in CrtM inhibition” value [2] is reported as ~4 ×.

For `O=P([O-])([O-])C(Cc1cccc(Oc2ccccc2)c1)S(=O)(=O)[O-].[K+].[K+].[K+]` (stereo not shown) [Compound 14, 1-Phosphono-2-(3-phenoxyphenyl)ethylsulfonic Acid Tripotassium Salt], the “pIC50(CrtM) – pIC50(hSQS)” value [1] was −2.66 M.

With `O=P(O)(O)C(CCCc1cccc(Oc2ccc(O)cc2)c1)S(=O)(=O)O` (stereo not shown) [Compound 27, 1-Phosphono-4-[3-(4-hydroxyphenoxy)phenyl]butylsulfonic Acid Tripotassium Salt] the IC50 [3] was 6.8 µM.

With `O=P([O-])([O-])C(CCCc1cccc(Oc2ccc(F)cc2)c1)S(=O)(=O)[O-].[K+].[K+].[K+]` (stereo not shown) [Compound 5, 1-Phosphono-4-[3-(4-fluorophenoxy)phenyl]butylsulfonic Acid Tripotassium Salt] the “as active as 1 in CrtM inhibition” value [2] was ~4 ×.
